Patent US20240173298A1, “COMPOSITION FOR AMELIORATING OR SUPPRESSING DECLINE OF KIDNEY FUNCTIONS” (SUNTORY HOLDINGS LIMITED, priority 2021, published 2024)

Key:
[1] = mice, oral administration, versus mice not administered; cited from earlier work
[2] = Study on evaluation of blood renal function markers in humans (placebo-controlled, randomized, double-blind, parallel-group); assay type: in vivo; conditions: one capsule with 20 mg L-ergothioneine per day, oral, four weeks, week 4 minus pre-testing, versus control food group
Method: In order to evaluate the influence of supplements containing ergothioneine on blood renal function marker levels in humans, a placebo-controlled, randomized, double-blind, parallel-group study was conducted on subjects including male and female adults (46 subjects in a test food group; 46 subjects in a control food group; 92 subjects in total). In this study, one capsule containing 20 mg ergothioneine (test food) or one capsule not containing ergothioneine (control food) was fed per day for four weeks. Blood renal function marker levels of each subject were measured for pre-testing before starting the study (before starting ingestion of the test food or control food). After ingestion of the test food or control food for four weeks, blood renal function marker levels of each subject were measured again (testing on week 4). Renal function markers used for measurement were BUN, uric acid, and creatinine. […] For each subject, the BUN level measured at the time of pre-testing was subtracted from the BUN level measured at the time of testing on week 4 ((level measured at the time of testing on week 4)—(level measured at the time of pre-testing)) to determine Δ in level (the amount of change in BUN level) (mg/dL). […] For each subject, the uric acid level measured at the time of pre-testing was subtracted from the uric acid level measured at the time of testing on week 4 ((level measured at the time of testing on week 4)−(level measured at the time of pre-testing)) to determine Δ in level (the amount of change in uric acid level) (mg/dL). […] For each subject, the creatinine level measured at the time of pre-testing was subtracted from the creatinine level measured at the time of testing on week 4 ((level measured at the time of testing on week 4)−(level measured at the time of pre-testing)) to determine Δ in level (the amount of change in creatinine level) (mg/dL). […]

**Q.** Which results are given for `C[N+](C)(C)[C@@H](Cc1c[nH]c(=S)[nH]1)C(=O)[O-]` [L-ergothioneine]?
**A.** peritesticular fat weight [1]: lower; triglyceride (neutral fat) level in plasma [1]: lower; change in BUN level (Δ in BUN) [2]: reduced; change in blood creatinine level (Δ in creatinine) [2]: reduced; change in blood uric acid level (Δ in uric acid) [2]: reduced
